Source: ChEMBL document CHEMBL1155505, “Penicinoline, a new pyrrolyl 4-quinolinone alkaloid with an unprecedented ring system from an endophytic fungus Penicillium sp” (Bioorg Med Chem Lett, 2010)
Values after ≈ are worked out from the molar mass of the structure shown.

Experiments:
Aphis gossypii = test: Insecticidal activity against Aphis gossypii; assay type: functional
HepG2 = test: Cytotoxicity against human HepG2 cells; assay type: functional, cell-based
[1] = Cytotoxicity against human 95-D cells; assay type: functional, cell-based
Uromyces viciae-fabae = test: […] activity against Uromyces fabae; assay type: functional
Plutella xylostella = test: Insecticidal activity against Plutella xylostella; assay type: functional
HeLa = test: Cytotoxicity against human HeLa cells; assay type: functional, cell-based
Heliothis virescens = test: Insecticidal activity against Heliothis virescens; assay type: functional
Zymoseptoria tritici = test: […] activity against Septoria tritici; assay type: functional
HEp-2 = test: Cytotoxicity against human Hep2 cells; assay type: functional, cell-based
[2] = Cytotoxicity against human KBv200 cells; assay type: functional, cell-based
KB = test: Cytotoxicity against human KB cells; assay type: functional, cell-based

| Compound | min. effective conc. (Aphis gossypii) | IC50 (HepG2) | IC50 [1] | min. effective conc. (Uromyces viciae-fabae) | min. effective conc. (Plutella xylostella) | IC50 (HeLa) | min. effective conc. (Heliothis virescens) | min. effective conc. (Zymoseptoria tritici) | IC50 (HEp-2) | IC50 [2] | IC50 (KB) |
| --- | --- | --- | --- | --- | --- | --- | --- | --- | --- | --- | --- |
| O=C(O)c1c(-c2ccc[nH]2)[nH]c2ccccc2c1=O [PENICINOLINE] | 1000 ppm | 6.5 µg/mL (≈ 25.6 µM) | 0.57 µg/mL (≈ 2.24 µM) | > 1000 ppm | > 1000 ppm | > 100 µg/mL | > 1000 ppm | > 1000 ppm | > 100 µg/mL | > 100 µg/mL | > 100 µg/mL |
| Cn1c2c(c(=O)c3ccccc31)C(=O)n1cccc1-2 [PENICINOTAM] | 1000 ppm |  |  | > 1000 ppm | 500 ppm |  | > 1000 ppm | > 1000 ppm |  |  |  |
